Source: US4816464A, “10-Substituted benzo[b][1,6]naphthyridines as inhibitors of interleukin 1” (American Home Products Corporation, priority 1987, dated 1989)

Assays:
[1] = tested on: carrageenan paw edema; experiment: rat carrageenan paw edema assay; format: in vivo, rat (Sprague-Dawley); details: for ED50: Rattus norvegicus, po, 3 h, read-out: Oral ED50 (95% C.L.); for % Change: 1 hour prior to carrageenan, edema at 3 hours
Description: The compounds of the invention are tested in the rat carrageenan paw edema assay to determined their ability to inhibit the acute inflammatory response. 140-180 gm male Sprague-Dawley rats, in groups of 6 animals, are injected subcutaneously in the right paw with 0.1 ml of 1% carrageenan at zero time. Mercury plethysmographic readings (ml) of the paw are made at zero time and 3 hours later. Test compounds are suspended or dissolved in 0.5% methylcellulose and given perorally 1 hour prior to carrageenan administration. The increase in paw volume (edema in ml.) produced by the carrageenan is measured. Paw edema is calculated (3 hour volume minus zero time volume), and percent inhibit of edema is determined. Unpaired Student's t-test is used to determine statistical significance.

[2] = tested on: IL 1-induced release of neutral protease from rabbit articular chondrocytes; experiment: inhibition of IL 1-induced release of neutral protease from rabbit articular chondrocytes (azocoll assay); format: cell-based, rabbit (New Zealand White); details: Oryctolagus cuniculus, Chondrocyte, compound added 10 min before human IL 1, 24 h stimulation, read-out: % Inhibition (I.S.D.)
Description: The ability of the compounds of the inventions to inhibit interleukin 1 is measured by the ability of the test compounds to inhibit the IL 1-induced release of neutral protease from rabbit articular chondrocytes.
Male New Zealand White rabbits are anesthetized with 50 mg/kg of ketamine (i.m.) and killed by an intracardiac injection of 3 mls. of Nembutal. The knee joints of both legs are resected and the articular surfaces are exposed. Cartilage slices are obtained using a scalpel and are placed in a tissue culture dish (100 mm diameter) containing 10 mls of Hank's balanced salt solution (HBSS). The chondrocytes within the cartilage slices are then liberated by a series of enzyme digestions. The slices are incubated for 10 min. at 37° C. in 0.05% hyaluronidase (Sigma H-3884), rinsed with HBSS and incubated with 0.2% trypsin (Sigma T-2395) for 10 min. at 37° C. The slices are rinsed again and incubated for 10 mins. at 37° C. with 1.2% collagenase (Sigma C-5138). The slices are then rinsed again with HBSS and resuspended in 10 ml of Ham's F-12 medium containing 10% fetal bovine calf serum (FCS) and 0.2% collagenase and incubated overnight at 37° C. in a 5% CO2 incubator. The next day, the medium containing the digested cartilage fragments and liberated chondrocytes is transferred to a 15 ml centrifuge tube and the cells are collected by centrifugation and washed twice and resuspended in Ham's F-12 medium. The cells are then plated into 24-well tissue culture plates (2×10^5 cells/well) and incubated at 37° C. until confluent (usually 4-6 days).
The confluent chondrocytes are rinsed twice with serum-free Ham's F-12 medium and 1 ml is added to each well. Fifty μl of purified human IL 1 (100 Units/ml; Genzyme Corporation, Boston, MA) is then added to stimulate these cells to secrete neutral protease. To measure drug effects, the cells are treated with test compound 10 min. prior to addition of IL 1. The standard screening dose is 10 μM. Twenty-four hours after IL 1 stimulation, supernatant fluids are collected and assayed for neutral protease activity.
The neutral protease activity of chondrocyte supernatant fluids is determined by their ability to degrade an insoluble protease substrate, azocoll (Sigma). Supernatants are treated for 10 min. at room temperature with 350 μM p-aminophenylmurcuric acetate to activate the latent enzyme. Three hundred μl of supernatant is then mixed with 500 μl of a 20 mg/ml suspension of azocoll and incubated at 37° C. for 18-24 hrs. with gentle rocking. The mixtures are centrifuged and the amount of substrate hyrolyzed is determined by measuring the absorbance of the supernatant at 520 nm.
Drug effects are calculated as the % change in enzyme activity (absorbance)by supernatants from drug-treated chondrocytes relative to enzyme activity of supernatants from vehicle-treated chondrocytes as follows: [formula]

| SMILES | inhibition at 10 µM [2] | also measured |
| --- | --- | --- |
| CC(=O)Oc1ccccc1C(=O)O [Aspirin, reference compound] |  | ED50 [1]: 145 mg/kg |
| CCCCN1CCc2nc3cc(Cl)ccc3c(Cl)c2C1 [Example 1, 2-Butyl-7,10-dichloro-1,2,3,4-tetrahydrobenzo[b][1,6]naphthyridine] | 3% |  |
| CCCCCCCCN1CCc2nc3cc(Cl)ccc3c(Cl)c2C1 [Example 2, 7,10-dichloro-1,2,3,4-tetrahydro-2-octylbenzo[b][1,6]naphthyridine] | 51% |  |
| C=CCCCN1CCc2nc3cc(Cl)ccc3c(Cl)c2C1 [Example 4, 7,10-Dichloro-1,2,3,4-tetrahydro-2-(4-pentenyl)benzo[b][1,6]naphthyridine] | 12 ± 5% |  |
| CN1CCc2nc3cc(Cl)ccc3c(Cl)c2C1 [Example 5] | 26 ± 23% |  |
| CN1CCc2nc3ccc(Cl)cc3c(Cl)c2C1 [Example 6, 8,10-Dichloro-1,2,3,4-tetrahydro-2-methylbenzo[b][1,6]naphthyridine] | 13 ± 6% |  |
| CN1CCc2nc3cc(Cl)ccc3c(NNc3ccccc3)c2C1 [Example 7, 1-(7-Chloro-1,2,3,4-tetrahydro-2-methylbenzo[b][1,6]-naphthyridin-10-yl)-2-phenylhydrazine] | 78 ± 13% | inhibition at 1 µM [2]: 35 ± 22%; % Change ([1]; 10 mg/kg perorally): 41%; % Change ([1]; 30 mg/kg perorally): 64%; % Change ([1]; 90 mg/kg perorally): 68%; % Change ([1]; 100 mg/kg perorally): 59% |
| CCCCN1CCc2nc3cc(Cl)ccc3c(NNc3ccccc3)c2C1 [Example 8, 2-Butyl-7-chloro-1,2,3,4-tetrahydro-10-(2-phenyl-hydrazino)benzo[b][1,6]naphthyridine] |  | inhibition at 1 µM [2]: 22 ± 6% |
| CCCCCCCCN1CCc2nc3cc(Cl)ccc3c(NNc3ccccc3)c2C1 [Example 9, 7-Chloro-1,2,3,4-tetrahydro-2-octyl-10-(2-phenyl-hydrazino)benzo[6][1,6]naphthyridine] |  | inhibition at 1 µM [2]: 22 ± 6% |
| C=CCN1CCc2nc3cc(Cl)ccc3c(NNc3ccccc3)c2C1 [Example 10, 7-Chloro-1,2,3,4-tetrahydro-10-(2-phenylhydrazino)-2-(2-propenyl)benzo[b][1,6]naphthyridine, dihydrate] | 62 ± 2% |  |
| C=CCCCN1CCc2nc3cc(Cl)ccc3c(NNc3ccccc3)c2C1 [Example 11, 7-Chloro-1,2,3,4-tetrahydro-2-(4-pentenyl)-10-(2-phenyl-hydrazino)benzo[b][1,6]naphthyridine, sesquihydrate] | 11 ± 26% |  |
| COCCNc1c2c(nc3cc(Cl)ccc13)CCN(C)C2 [Example 12, 7-Chloro-1,2,3,4-tetrahydro-N-(2-methoxyethyl)-2-methylbenzo[b]-[1,6]naphthyridin-10-amine, three quarter hydrate] | 62 ± 28% |  |
| CN1CCc2nc3cc(Cl)ccc3c(NCCN3CCOCC3)c2C1 [Example 13, 7-Chloro-1,2,3,4-tetrahydro-2-methyl-N-(2-(4-morpholinyl)-ethyl)benzo[b][1,6]naphthyridin-10-amine] | 4 ± 13% |  |
| CN1CCc2nc3cc(Cl)ccc3c(Nc3ccccc3)c2C1 [Example 14, 10-Anilino-7-chloro-1,2,3,4-tetrahydro-2-methylbenzo[b][1,6]naphthyridine] | 14 ± 4% |  |
| CN1CCc2nc3cc(Cl)ccc3c(Oc3ccccc3)c2C1 [Example 15, 7-Chloro-1,2,3,4-tetrahydro-2-methyl-10-phenoxybenzo[b][1,6]naphthyridine] | 22 ± 28% |  |
| CN1CCN(c2c3c(nc4cc(Cl)ccc24)CCN(C)C3)CC1 [Example 16, 7-Chloro-1,2,3,4-tetrahydro-2-methyl-10-(4-methyl-1-piperazinyl)benzo[b][1,6]naphthyridine] |  | inhibition at 5 µM [2]: 14 ± 3% |
| CN1CCc2nc3cc(Cl)ccc3c(Sc3ccccc3)c2C1 [Example 17, 7-Chloro-1,2,3,4-tetrahydro-2-methyl-10-thiophenylbenzo[b][1,6]naphthyridine] | 44 ± 21% |  |
| CN1CCc2nc3ccc(Cl)cc3c(Oc3ccccc3)c2C1 [Example 18, 8-Chloro-1,2,3,4-tetrahydro-2-methyl-10-phenoxybenzo[b][1,6]naphthyridine] | 9 ± 28% |  |
| CN1CCc2nc3ccc(Cl)cc3c(Nc3ccccc3)c2C1 [Example 19, 10-Anilino-8-chloro-1,2,3,4-tetrahydro-2-methylbenzo[b][1,6]naphthyridine] | 23 ± 25% |  |
| CN1CCc2nc3ccc(Cl)cc3c(NN)c2C1 [Example 20, (8-Chloro-1,2,3,4-tetrahydro-2-methylbenzo[b][1,6]naphthyridin-10-yl)hydrazine] |  | inhibition at 5 µM [2]: 18% |
| CN1CCc2nc3ccc(Cl)cc3c(SCCCN)c2C1 [Example 21, 10-(3-Aminopropylthio)-8-chloro-1,2,3,4-tetrahydro-2-methylbenzo[b][1,6]naphthyridine] | 42 ± 26% |  |
| COc1ccc2c(c1)c(CC(=O)O)c(C)n2C(=O)c1ccc(Cl)cc1 [Indomethacin, reference compound] |  | ED50 [1]: 3.7 mg/kg |
